According to patent publication US4795752A, “Amide derivatives and antiallergic agents containing the same” (Terumo Kabushiki Kaisha, priority 1985, dated 1989):

System: PCA reaction
Experiment: PCA reaction-inhibitory effects in rats (passive cutaneous anaphylaxis, oral administration, Evans Blue dye exudation)
Format: in vivo, rats (female Sprague-Dawley)
Conditions: for Inhibition (%) mean ± SE: one hour before challenge; for ED50: Rattus norvegicus, from the percent inhibition-concentration graph, read-out: ID50 against exudation of the dye
Experimental: DNP-ascaris (1 mg) prepared by combining a swine ascaris extract with 2,4-dinitrophenyl sulfate was mixed with 20 mg of aluminum hydroxide gel. The mixture was administered to rats subcutaneously on the back, and at the same time the animals were intraperitoneally given 2×10^10 dead Bordetella pertussis respectively. The same procedures were repeated after 14 days, and blood sample was obtained after 21 days to produce antisera.
Female Sprague-Dawley strain rats (8 weeks old) were sensitized by subcutaneously administering 0.1 ml of 1:256 diluted antisera (titer=1024)respectively on the grained back. After 48 hours, groups of four rats were orally given the amide derivatives produced in the examples above at various concentrations. After one hour, the rats were challenged by intravenously administering a 0.5% physiological saline solution of Evans Blue containing 1 mg of the DNP-ascaris from the tail. After 30 minutes, the animal was sacrificed by bleeding and the portion of the skin with the dye exuded was cut off. The cut skin was treated with 1N--KOH solution, and the dye was extracted by adding 9 ml of 0.6N-phosphoric acid-acetone (5:13) mixture. The supernatant from centrifugal separation was measured for absorbancy at 620 nm to determine amount of the dye. Percent inhibition at each of the concentrations of the amide derivatives was calculated in comparison with amount of the dye for control group. 50% Inhibitory concentration (ID50) of the amide derivatives against exudation of the dye was determined from the percent inhibition-concentration graph. Results are shown in Table-I. Percent inhibition of tranilast, an antiallergic agent commercially available from Kissei Pharmaceutical Co., Ltd. under the trade name of Rizaben against PCA reaction was also shown in Table-I. As shown in Table-I, the amide derivatives of the invention produced high PCA reaction-inhibitory effects.

SMILES	Inhibition (%) mean ± SE (100 mg/kg) [%]	Inhibition (%) mean ± SE (200 mg/kg) [%]	Inhibition (%) mean ± SE (300 mg/kg) [%]	ED50 [mg/kg]	Inhibition (%) mean ± SE (3 mg/kg) [%]	Inhibition (%) mean ± SE (10 mg/kg) [%]	Inhibition (%) mean ± SE (30 mg/kg) [%]
COc1ccc(/C=C/C(=O)Nc2ccccc2C(=O)O)cc1OC [Control, tranilast, reference compound]	37 ± 8	40 ± 10	42 ± 5	> 300	–	–	–
CCOC(=O)Oc1ccc(/C=C/C=C/C(=O)NCCN2CCC(OC(c3ccccc3)c3ccccc3)CC2)cc1OC [Example 1, 1-[2-[5-(3-methoxy-4-ethoxycarbonyloxyphenyl)-2,4-pentadienoyl]aminoethyl]-4-benzhydroxypiperidine]	–	–	–	10	26 ± 15	51 ± 18	71 ± 6
CCOC(=O)Oc1ccc(/C=C/C(=O)NCCN2CCC(OC(c3ccccc3)c3ccccc3)CC2)cc1OC [Example 2, 1-[2-[3-(3-methoxy-4-ethoxycarbonyloxyphenyl)-2-propenoyl]-aminoethyl]-4-benzhydroxypiperidine]	–	–	–	15	20 ± 15	41 ± 16	64 ± 5
CCOC(=O)Oc1ccc(/C=C/C=C/C(=O)NCCCN2CCN(C(c3ccccc3)c3ccccc3)CC2)cc1OC [Example 3, 1-[3-[5-(3-methoxy-4-ethoxycarbonyloxyphenyl)-2,4-pentadienoyl]aminopropyl]-4-benzhydrylpiperazine]	63 ± 5	–	–	55	–	19 ± 14	38 ± 15
CCOC(=O)Oc1ccc(/C=C/C(=O)NCCN2CCC(OC(c3ccccc3)c3ccccc3)CC2)cc1OC(=O)OCC [Example 4]	–	–	–	12	22 ± 14	46 ± 10	68 ± 7
CCOC(=O)Oc1ccc(/C=C/C=C/C(=O)NCCN2CCC(OC(c3ccccc3)c3ccccc3)CC2)cc1OC(=O)OCC [Example 5, 1-[2-[5-(3,4-diethoxycarbonyloxyphenyl)-2,4-pentadienoyl]aminoethyl]-4-benzhydroxypiperidine]	–	–	–	–	30 ± 16	55 ± 10	75 ± 4
